This passage reports inhibition and Ki results from ChEMBL document CHEMBL1130241, “Design, synthesis, and biochemical evaluation of phosphonate and phosphonamidate analogs of glutathionylspermidine as inhibitors of glutathionylspermidine synthetase/amidase from Escherichia coli” (J Med Chem, 1997).

The structures appear in SMILES notation.

One may read the inhibition as how much of the control response was suppressed. Broadly, the Ki is a measure of affinity in units of concentration, obtained from inhibition or displacement.

Assay [1] deals with Glutathionylspermidine synthetase/amidase (Escherichia coli) (UniProt P0AES0). The assay can be described thus: Percentage of inhibition of Glutathionylspermidine synthetase at 7.3 mM concentration.
Chain of Glutathionylspermidine synthetase/amidase (Escherichia coli) (P0AES0 whole entry, looked up): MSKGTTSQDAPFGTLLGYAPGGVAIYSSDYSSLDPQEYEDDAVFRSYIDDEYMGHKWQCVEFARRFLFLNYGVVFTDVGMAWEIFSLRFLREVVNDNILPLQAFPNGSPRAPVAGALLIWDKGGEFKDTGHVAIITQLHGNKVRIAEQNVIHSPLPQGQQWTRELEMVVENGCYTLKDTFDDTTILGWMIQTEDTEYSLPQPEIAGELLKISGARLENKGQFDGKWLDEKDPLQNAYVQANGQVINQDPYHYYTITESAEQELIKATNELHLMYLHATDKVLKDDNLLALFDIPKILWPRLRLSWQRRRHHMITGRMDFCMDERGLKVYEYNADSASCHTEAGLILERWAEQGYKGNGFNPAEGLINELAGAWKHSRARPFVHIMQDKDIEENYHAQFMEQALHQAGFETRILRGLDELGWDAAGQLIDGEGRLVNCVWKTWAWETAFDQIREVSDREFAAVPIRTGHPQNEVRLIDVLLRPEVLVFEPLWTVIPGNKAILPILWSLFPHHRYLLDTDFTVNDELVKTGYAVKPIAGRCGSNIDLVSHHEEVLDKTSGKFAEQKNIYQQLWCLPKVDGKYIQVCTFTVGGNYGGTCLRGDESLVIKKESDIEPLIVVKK
Assay [2] shares this target. The experiment in a line: Percentage of inhibition of Glutathionylspermidine synthetase at 1 mM concentration.
The subject of assay [3] is Escherichia coli. The experiment in a line: Inhibition of Glutathionylspermidine amidase at 1 mM compound concentration.
The subject of assay [4] is Escherichia coli. The assay can be described thus: Inhibition of glutathionylspermidine amidase at 1 mM; not detectable.
For assay [5], the target named is Glutathionylspermidine synthetase/amidase (Escherichia coli) (UniProt P0AES0). The experiment in a line: Inhibition of Glutathionylspermidine synthetase.
Assay [6] deals with T1, Glutathionylspermidine synthase (Crithidia fasciculata, UniProt P90518).
T1 sequence (P90518 whole entry): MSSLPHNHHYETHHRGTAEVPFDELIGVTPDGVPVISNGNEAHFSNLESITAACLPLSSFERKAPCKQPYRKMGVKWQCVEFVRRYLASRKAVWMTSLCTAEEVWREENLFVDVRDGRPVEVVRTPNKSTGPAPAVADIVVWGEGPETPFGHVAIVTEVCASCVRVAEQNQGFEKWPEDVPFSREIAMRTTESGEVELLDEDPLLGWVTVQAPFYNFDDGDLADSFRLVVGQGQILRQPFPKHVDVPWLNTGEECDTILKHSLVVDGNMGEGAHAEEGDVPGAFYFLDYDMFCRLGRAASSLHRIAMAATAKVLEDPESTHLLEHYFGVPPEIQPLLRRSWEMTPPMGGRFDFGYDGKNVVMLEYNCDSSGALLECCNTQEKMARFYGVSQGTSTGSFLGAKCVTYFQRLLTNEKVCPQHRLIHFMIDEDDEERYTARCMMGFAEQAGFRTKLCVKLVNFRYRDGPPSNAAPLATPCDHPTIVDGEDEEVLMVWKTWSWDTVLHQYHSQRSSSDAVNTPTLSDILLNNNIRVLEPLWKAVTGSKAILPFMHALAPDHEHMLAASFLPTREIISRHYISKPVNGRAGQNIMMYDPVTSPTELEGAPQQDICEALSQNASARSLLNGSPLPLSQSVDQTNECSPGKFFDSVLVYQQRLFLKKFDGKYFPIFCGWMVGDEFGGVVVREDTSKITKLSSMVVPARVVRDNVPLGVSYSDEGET
The experiment in a line: Inhibition of Glutathionylspermidine synthetase. Values from different publications. Also noted: species or system Escherichia coli.

Consider `CCCCNP(=O)(CNC(=O)[C@H](C)NC(=O)CC[C@H](N)C(=O)O)OC` (some centres not stated), for which the inhibition in assay [1] stood at 31.3%; in assay [2], 5.7%; in the assay with Escherichia coli [3] it was 1.8%.

As for `C[C@H](NC(=O)CC[C@H](N)C(=O)O)C(=O)NCP(=O)(O)OCCCNCCCCN`, the inhibition entry in the assay on Escherichia coli [4] was “not detectable”. Further, affinity in assay [5] was put at a Ki of 6 µM.

Compound `COP(=O)(CNC(=O)[C@H](C)NC(=O)CC[C@H](N)C(=O)O)NCCCNCCCCN` (some centres not stated) came in with a Ki in assay [6] of 24 µM. Besides, the inhibition in the assay on Escherichia coli [3] amounted to 3.4%.
